# Measurements as given in patent US6017918A, “Phenyl glycine compounds and methods of treating atherosclerosis and restenosis” (Warner-Lambert Company, priority 1999, dated 2000).
# Several values for one entry are separate records, joined by “and”; a condition that tells them apart may be missing. Equal values may be shown once.
# Assays:
# [1] = test system: apolipoprotein(a), [apo(a)], apolipoproteinB-100, [apoB-100], coupling reaction that generates Lp(a); test: LPABC screen: lipoprotein(a) biochemical coupling assay, Lp(a) by ELISA; details: recombinant apo(a) + HepG2 conditioned media, 67 minutes, 37° C.; ^a = multiple tests
# Description: The lipoprotein(a), [Lp(a)], biochemical coupling assay (LPABC) is used to characterize inhibitors of the apolipoprotein(a), [apo(a)], apolipoproteinB-100, [apoB-100], coupling reaction that generates Lp(a).
# Protocol Conditioned media from 293 cells (ATCC CRL-1573), permanently transfected with an apo(a) 17-kringle cDNA expression construct (pcDNA-AMP, In Vitrogen, Carlsbad, Calif.) using standard molecular biology techniques, was used as a source of recombinant apo(a). The 293 cell conditioned media containing the recombinant apo(a) is diluted 1:3 with phosphate buffered saline (PBS) and 90 μL is pipetted into each well of a 96-well plate and placed into a 37° C. incubator for 10 minutes. Twenty microliters of a 0.3 to 50 μM solution of a compound of the present invention in PBS is added to the warmed plate. Ninety microliters of HepG2 (ATCC HB-8065) cell conditioned media diluted 1:3 with PBS is added to the apo(a)/compound mixture and mixed by pipetting up and down 5 times. The reaction is incubated for 67 minutes in a 37° C. incubator. A 100 μL aliquot of the reaction is removed and assayed for its Lp(a) content by an enzyme linked immunosorbent assay (ELISA).
# [2] = test system: Lp(a) production (HepG2^K17 cells); test: LPA3 screen: inhibition of Lp(a) production in HepG2^K17 cells, Lp(a) by ELISA; assay type: cell-based; details: 8 h, Lp(a) normalized for total protein, ^a = multiple tests
# Procedure: The LPA3 screen is used to identify compounds that inhibit Lp(a) production. This screen employs permanently transfected HepG2 cells (HepG2^K17) that are generated using an apo(a) 17-kringle cDNA expression construct (pcDNA-AMP, In Vitrogen, Carlsbad, Calif.) in accordance with methods that are well-known in molecular biology.
# HepG2^K17 cells are seeded in 96-well plates at a density of 75,000 cells per well in 0.25 mL of Dulbecco's Modified Eagle Media (DMEM) containing 10% fetal bovine serum (FBS). Seeded plates are incubated overnight in a 37° C., 5% CO2 /95% […] incubator. The media is removed, replaced with (1) fresh media, or (2) fresh media plus 0.3 to 50 μM of a compound of the present invention in 20 μL of PBS, and the plates returned to the incubator for 8 hours. After the additional 8 hours of incubation, Lp(a) is assayed in the media by ELISA. Cells are digested with 0.5N NaOH overnight and assayed for total protein. Lp(a) values are normalized for total protein content.
IC50 [1],SMILES,IC50 [2] [µM]
1.66 µM,"CCOC(=O)C(c1cc(C(C)(C)C)c(O)c(C(C)(C)C)c1)N1CCN(C)CC1 (centres unmarked) [Example 55, (3,5-Di-tert-butyl-4-hydroxy-phenyl)-[(N'-methyl)-N-piperazinyl]-acetic acid ethyl ester]",
33.4 µM,"CCOC(=O)C(NCc1ccccc1C(F)(F)F)c1cc(C(C)(C)C)c(O)c(C(C)(C)C)c1 (centres unmarked) [Example 47, (3,5-Di-tert-butyl-4-hydroxy-phenyl)-(2-trifluoromethyl-benzylamino)-acetic acid ethyl ester]",> 74
50.2 µM,"CCOC(=O)C(NCc1ccccc1F)c1cc(C(C)(C)C)c(O)c(C(C)(C)C)c1 (centres unmarked) [Example 40, (3,5-Di-tert-butyl-4-hydroxy-phenyl)-(2-fluoro-benzylamino]-acetic acid ethyl ester]",> 74
57.6 µM,"CCOC(=O)C(NCc1ccc(C#N)cc1)c1cc(C(C)(C)C)c(O)c(C(C)(C)C)c1 (centres unmarked) [Example 34, (4-Cyano-benzylamino)-(3,5-di-tert-butyl-4-hydroxy-phenyl)-acetic acid ethyl ester]",> 74
96.8 µM,"CCOC(=O)C(NCc1ccc([N+](=O)[O-])cc1)c1cc(C(C)(C)C)c(O)c(C(C)(C)C)c1 (centres unmarked) [Example 45, (3,5-Di-tert-butyl-4-hydroxy-phenyl)-(4-nitro-benzylamino)-acetic acid ethyl ester]",> 74
62.6 µM,"CCOC(=O)C(NCc1ccc(N)cc1)c1cc(C(C)(C)C)c(O)c(C(C)(C)C)c1 (centres unmarked) [Example 30, (4-Amino-benzylamino)-(3,5-di-tert-butyl-4-hydroxy-phenyl)-acetic acid ethyl ester]",> 74
59.1 µM,"CCOC(=O)C(NCc1ccc(O)c(OCC)c1)c1cc(C(C)(C)C)c(O)c(C(C)(C)C)c1 (centres unmarked) [Example 39, (3,5-Di-tert-butyl-4-hydroxy-phenyl)-(3-ethoxy-4-hydroxy-benzylamino)-acetic acid ethyl ester]",> 74
1.55 µM,"CCOC(=O)C(c1cc(C(C)(C)C)c(O)c(C(C)(C)C)c1)N1CCCC1 (centres unmarked) [Example 52, (3,5-Di-tert-butyl-4-hydroxy-phenyl)-(N-pyrollidinyl)-acetic acid ethyl ester]",2.7
53.9 µM,"CCOC(=O)C(NCc1cccc(C(F)(F)F)c1)c1cc(C(C)(C)C)c(O)c(C(C)(C)C)c1 (centres unmarked) [Example 48, (3,5-Di-tert-butyl-4-hydroxy-phenyl)-(3-trifluoromethyl-benzylamino)-acetic acid ethyl ester]",> 74
9.37 µM,"CCOC(=O)C(NCc1ccoc1)c1cc(C(C)(C)C)c(O)c(C(C)(C)C)c1 (centres unmarked) [Example 41, (3,5-Di-tert-butyl-4-hydroxy-phenyl)-[(furan-3-ylmethyl)-amino]-acetic acid ethyl ester]",
12.5 µM,"CCOC(=O)C(NCc1cccc(Cl)c1)c1cc(C(C)(C)C)c(O)c(C(C)(C)C)c1 (centres unmarked) [Example 10, (3-Chloro-benzylamino)-(3,5-di-tert-butyl-4-hydroxy-phenyl)-acetic acid ethyl ester]",
10.3 µM,"CCOC(=O)C(NCc1ccccc1)c1cc(C(C)(C)C)c(O)c(C(C)(C)C)c1 (centres unmarked) [Example 5, Benzylamino-(3,5-di-tert-butyl-4-hydroxy-phenyl)-acetic acid ethyl ester]",76
60.2 µM,"CCOC(=O)C(NCC1CCCCC1)c1cc(-c2ccccc2)c(O)c(-c2ccccc2)c1 (centres unmarked) [Example 11, (Cyclohexylmethyl-amino)-(2'-hydroxy-[1,1';3',1""]terphenyl-5'-yl)-acetic acid ethyl ester]",
34.5 µM,"CCOC(=O)C(NCc1ccsc1)c1cc(C(C)(C)C)c(O)c(C(C)(C)C)c1 (centres unmarked) [Example 46, (3,5-Di-tert-butyl-4-hydroxy-phenyl)-[(thiophen-3-ylmethyl)-amino]-acetic acid ethyl ester]",> 74
68.4 µM,"CCOC(=O)C(NCc1cccc(O)c1)c1cc(C(C)(C)C)c(O)c(C(C)(C)C)c1 (centres unmarked) [Example 42, (3,5-Di-tert-butyl-4-hydroxy-phenyl)-(3-hydroxy-benzylamino)-acetic acid ethyl ester]",> 74
67.4 µM,"CCOC(=O)C(NCC1CCCCC1)c1cc(C(C)CC)c(O)c(C(C)CC)c1 (centres unmarked) [Example 13, (Cyclohexylmethyl-amino)-(3,5-di-sec-butyl-4-hydroxy-phenyl)-acetic acid ethyl ester]",

IC50 [1],SMILES,IC50 [2] [µM]
0.8 µM,"CCOC(=O)C(c1cc(C(C)(C)C)c(O)c(C(C)(C)C)c1)N1CCOCC1 (centres unmarked) [Example 54, (3,5-Di-tert-butyl-4-hydroxy-phenyl)-(N-morpholinyl)-acetic acid ethyl ester]",1.3
1.34 µM and 1.3 µM,"CCOC(=O)C(c1cc(C(C)(C)C)c(O)c(C(C)(C)C)c1)N(Cc1cccnc1)Cc1cccnc1 (centres unmarked) [Example 9, (Bis-pyridin-3-ylmethyl-amino)-(3,5-di-tert-butyl-4-hydroxy-phenyl)-acetic acid ethyl ester]",
6.52 µM,"CCOC(=O)C(NCC1CCCCC1)c1cc(C(C)(C)C)c(O)c(C(C)(C)C)c1 (centres unmarked) [Example 6, (Cyclohexylmethyl-amino)-(3,5-di-tert-butyl-4-hydroxy-phenyl)-acetic acid ethyl ester]",> 74
1.48 µM,"CCOC(=O)C(c1cc(C(C)(C)C)c(O)c(C(C)(C)C)c1)N(Cc1cccnc1)CC1CCCCC1 (centres unmarked) [Example 16, (Cyclohexylmethyl-pyridin-3-ylmethyl-amino)-(3,5-di-tert-butyl-4-hydroxy-phenyl)-acetic acid ethyl ester]",3.7
54.3 µM,"CCOC(=O)C(NCc1ccccc1OC)c1cc(C(C)(C)C)c(O)c(C(C)(C)C)c1 (centres unmarked) [Example 44, (3,5-Di-tert-butyl-4-hydroxy-phenyl)-(2-methoxy-benzylamino)-acetic acid ethyl ester]",> 74
43.4 µM,"CCOC(=O)C(NCc1ccccc1Cl)c1cc(C(C)(C)C)c(O)c(C(C)(C)C)c1 (centres unmarked) [Example 33, (2-Chloro-benzylamino)-(3,5-di-tert-butyl-4-hydroxy-phenyl)-acetic acid ethyl ester]",> 74
0.65 µM,"CCOC(=O)C(c1cc(C(C)(C)C)c(O)c(C(C)(C)C)c1)N(C)C (centres unmarked) [Example 17, (3,5-Di-tert-butyl-4-hydroxy-phenyl)-dimethylamino-acetic acid ethyl ester]",
10 µM,"CCOC(=O)C(NCc1cccnc1)c1cc(C(C)(C)C)c(O)c(C(C)(C)C)c1 (centres unmarked) [Example 2, (3,5-Di-tert-butyl-4-hydroxy-phenyl)-[(pyridin-3-ylmethyl)-amino]-acetic acid ethyl ester]",20
29.6 µM,"CCOC(=O)C(NCc1ccc(OCCN(CC)CC)cc1)c1cc(C(C)(C)C)c(O)c(C(C)(C)C)c1 (centres unmarked) [Example 37, (3,5-Di-tert-butyl-4-hydroxy-phenyl)-[4-(2-diethylamino-ethoxy)-benzylamino]-acetic acid ethyl ester]",
29.6 µM,"CCOC(=O)C(NCc1ccc(OC)cc1)c1cc(C(C)(C)C)c(O)c(C(C)(C)C)c1 (centres unmarked) [Example 32, (3,5-Di-tert-butyl-4-hydroxy-phenyl)-(4-methoxy-benzylamino)-acetic acid ethyl ester]",> 74
4.16 µM,"CCOC(=O)C(NC1CCCCC1)c1cc(C(C)(C)C)c(O)c(C(C)(C)C)c1 (centres unmarked) [Example 8, (3,5-Di-tert-butyl-4-hydroxy-phenyl)-[(cyclohexyl)-amino]-acetic acid etyl ester]",
62.2 µM,"CC(C)(C)c1cc(C(NCc2cccnc2)C(=O)O)cc(C(C)(C)C)c1O (centres unmarked) [Example 7, (3,5-Di-tert-butyl-4-hydroxy-phenyl)-[(pyridin-3-ylmethyl)-amino]-acetic acid]",
12.2 µM,"CCOC(=O)C(NCC1CC1)c1cc(C(C)(C)C)c(O)c(C(C)(C)C)c1 (centres unmarked) [Example 12, (Cyclopropylmethyl-amino)-(3,5-di-tert-butyl-4-hydroxy-phenyl)-acetic acid ethyl ester]",
,"CCOC(=O)C(NCc1ccc(O)cc1)c1cc(C(C)(C)C)c(O)c(C(C)(C)C)c1 (centres unmarked) [Example 43, (3,5-Di-tert-butyl-4-hydroxy-phenyl)-(4-hydroxy-benzylamino)-acetic acid ethyl ester]",> 74
75 µM,CCOC(=O)C(NCc1cc(C(C)(C)C)c(O)c(C(C)(C)C)c1)c1cc(C(C)(C)C)c(O)c(C(C)(C)C)c1 (centres unmarked) [Example 18],
10.9 µM,"CCNC(C(=O)OCC)c1cc(C(C)(C)C)c(O)c(C(C)(C)C)c1 (centres unmarked) [Example 51, (3,5-Di-tert-butyl-4-hydroxy-phenyl)-(ethylamino)-acetic acid ethyl ester]",
